The values below come from patent US9340524B2, “Androgen receptor modulator and uses thereof” (Aragon Pharmaceuticals, Inc., priority 2013, dated 2016).

One data set deals with LNCaP/AR cells. As to the kind of experiment: LNCaP/AR model for castrate resistant prostate cancer xenograft studies. To be noted: for Efficacy on LNCaP/AR tumors: monotherapy at or near maximally efficacious dose. Format: in vivo, male SCID Hairless Outbred mice. As for the experimental part:
In some embodiments, overexpression of wild type androgen receptor 3-5 fold in the LNCaP (LNCaP/AR) cell line confers a castration resistant phenotype both in vitro and in vivo.
Six to Seven week old male SCID Hairless Outbred mice (SHO, Charles Rivers Laboratories) underwent bilateral orchiectomy under isoflurane anesthesia. LNCaP/AR cells were grown in RPMI at 5% CO2, 37° C. Cells were spun down and re-suspended in 50% serum-free RPMI and 50% Matrigel at 1×10^7 cells/ml. LNCaP/AR cells were subcutaneously injected (100 μl/animal) on the right flank 3-5 days post castration. Tumor volume (length×width^2/2) was monitored weekly. When tumors reached an average volume of ˜200 mm^3 animals were randomized into treatment groups. During the treatment period tumor volume was monitored bi-weekly. At the termination of the study, tumors were collected and stored for further analyses. All compounds were administered daily by oral gavage. Statistical analyses were performed using Graphpad Prism.

A further data set concerns metastatic CRPC. As to the kind of experiment: Phase II clinical trial, metastatic CRPC (treatment-naïve and post-abiraterone acetate cohorts). The format is in vivo, human. To be noted: for Patients with 12-week PSA decline of ≧50% from baseline: preliminary. The source says:
(§1) The primary objective was to assess antitumor activity and PSA kinetics as defined by the Prostate Cancer Clinical Trials Working Group (PCWG2) criteria. […] The median time to PSA progression was not reached for the TN cohort during the preliminary 12-week period, and was 16 weeks in the PA cohort.

In data set [1] the test system is non-castrate hormone-sensitive and bicalutamide-resistant human prostate cancer xenograft models. The conditions noted are these: in vivo; cited from earlier work.
The test system of the next data set is non-metastatic CRPC. Briefly: Phase II clinical trial, non-metastatic CRPC. The format is in vivo, human. To be noted: 240 mg/day.
Excerpt: as §1
The median time to PSA progression was not reached in this observed time period.

Data set [2] deals with PTEN KO model of prostate cancer. As to the kind of experiment: PTEN KO genetically engineered mouse model of prostate cancer. Format: in vivo, mice. To be noted: for Efficacy: combined androgen blockade (castration + anti-androgen). As for the experimental part: Ptenlox/lox; PB-Cre mice (age 6-8 months) are imaged by small animal MRI imaging core prior to and at the completion of treatment. All mice are castrated. Surgical castration is performed under anesthesia with isoflurane. Mice are monitored postoperatively for recovery.
Mice are administered control vehicle or test article by oral gavage daily Monday through Friday schedule for a total of 35 days. MRI tumor volumes are reported for each mouse at time point zero (T0) at initiation of study and time point 35 days (T35) at completion of study. Changes in tumor volumes between T0 and T35 are calculated for individual mice and reported in waterfall plots. At study end, mice were euthanized by CO2 asphyxiation, and tissue was collected for histology, mRNA analysis, protein analysis and other analyses.

The next data set relates to MDA MB 453 cells. Briefly: MDA MB 453 breast cancer xenograft assay. The format is in vivo, female SCID Hairless Outbred (SHO) mice. To be noted: 30 mg/kg/day, daily for 28 days. The protocol:
Time release pellets (12.5 mg 5α-Dihydrotestosterone/60 days) were subcutaneously implanted into female SCID Hairless Outbred (SHO) mice. MDA MB 453 cells were grown in RPMI containing 10% FBS, 10 μg/ml insulin, 10 mM Sodium Pyruvate, 10 mM Non-Essential Amino Acids at 5% CO2, 37° C. Cells were spun down and re-suspended in 50% RPMI (serum free) and 50% Matrigel (BD, high concentration containing phenol red) at 1×10^7 cells/ml. MDA MB 453 cells were subcutaneously injected (100 μl/animal) on the right flank 2-3 days post pellet implantation. Tumor volume (length×width^2/2) was monitored bi-weekly. When tumors reached an average volume of ˜350 mm^3, animals were randomized and treatment was started. […] Tumor volume and body weight were monitored bi-weekly throughout the study. At the conclusion of the treatment period; plasma and tumor samples were taken for pharmacokinetic and pharmacodynamic analyses, respectively.

For another data set, the target named is T1, T877A AR mutant (Homo sapiens, UniProt P10275, T878A).
T1 sequence (P10275 1-920 T878A): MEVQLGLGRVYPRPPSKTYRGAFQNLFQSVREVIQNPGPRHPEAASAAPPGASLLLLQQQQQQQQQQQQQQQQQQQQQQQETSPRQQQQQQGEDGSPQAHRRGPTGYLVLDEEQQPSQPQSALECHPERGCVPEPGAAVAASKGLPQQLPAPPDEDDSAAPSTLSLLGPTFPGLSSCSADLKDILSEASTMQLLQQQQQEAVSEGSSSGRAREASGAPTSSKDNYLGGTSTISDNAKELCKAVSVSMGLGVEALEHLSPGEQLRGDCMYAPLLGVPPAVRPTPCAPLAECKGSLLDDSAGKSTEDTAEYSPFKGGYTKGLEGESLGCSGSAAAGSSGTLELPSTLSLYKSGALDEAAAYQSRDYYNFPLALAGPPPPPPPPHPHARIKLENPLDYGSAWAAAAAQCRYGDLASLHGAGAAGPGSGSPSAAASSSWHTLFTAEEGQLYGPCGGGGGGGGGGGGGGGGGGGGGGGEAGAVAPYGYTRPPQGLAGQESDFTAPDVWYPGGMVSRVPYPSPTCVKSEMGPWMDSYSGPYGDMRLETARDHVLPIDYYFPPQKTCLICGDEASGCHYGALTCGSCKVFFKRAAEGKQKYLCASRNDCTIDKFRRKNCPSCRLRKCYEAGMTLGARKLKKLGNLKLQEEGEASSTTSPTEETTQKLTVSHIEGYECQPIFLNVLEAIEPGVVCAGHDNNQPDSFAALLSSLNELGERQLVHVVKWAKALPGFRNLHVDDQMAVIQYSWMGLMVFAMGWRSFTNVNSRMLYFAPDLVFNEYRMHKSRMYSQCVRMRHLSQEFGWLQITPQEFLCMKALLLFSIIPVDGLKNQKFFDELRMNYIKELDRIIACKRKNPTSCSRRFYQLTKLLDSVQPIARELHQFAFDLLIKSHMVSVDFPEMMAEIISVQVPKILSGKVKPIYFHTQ
To be noted: cited from earlier work.

`Nc1cc(C(F)(F)F)c(-c2cc(N3CCOCC3)nc(N3CCOCC3)n2)cn1` [BKM120, 5-(2,6-dimorpholinopyrimidin-4-yl)-4-(trifluoromethyl)pyridin-2-amine]: the “Number of regressions > 50%” value is 1/10 in the data set on LNCaP/AR cells (Table 4, BKM120 20 mg/kg alone) and 0/9 in the data set on LNCaP/AR cells (Table 4, BKM120 40 mg/kg alone). Also, in the data set with LNCaP/AR cells, the “Efficacy on LNCaP/AR tumors” value is “a range of efficacy from tumor growth inhibition to tumor stasis”.
`CO[C@H]1C[C@@H]2CC[C@@H](C)[C@@](O)(O2)C(=O)C(=O)N2CCCC[C@H]2C(=O)O[C@H]([C@H](C)C[C@@H]2CC[C@@H](OCCO)[C@H](OC)C2)CC(=O)[C@H](C)/C=C(\C)[C@@H](O)[C@@H](OC)C(=O)[C@H](C)C[C@H](C)/C=C/C=C/C=C/1C` [Everolimus]: the “Number of regressions > 50%” value in the data set on LNCaP/AR cells (Table 5, Everolimus 5 mg/kg/day alone) is 0/8; in the data set on LNCaP/AR cells (Table 5, Everolimus 10 mg/kg/day alone), 2/10. In the data set on LNCaP/AR cells, the “Efficacy on LNCaP/AR tumors” value is on record as “a range of efficacy from tumor growth inhibition to tumor stasis”.
As for `CNC(=O)c1ccc(N2C(=S)N(c3cnc(C#N)c(C(F)(F)F)c3)C(=O)C23CCC3)cc1F` [4-[7-(6-cyano-5-trifluoromethylpyridin-3-yl)-8-oxo-6-thioxo-5,7-diazaspiro[3.4]oct-5-yl]-2-fluoro-N-methylbenzamide], the Tolerability result in the data set with metastatic CRPC (240 mg oral, continuous daily dosing, NM-CRPC, TN mCRPC and post-abiraterone mCRPC) is “very well tolerated”. Also, the “Patients with 12-week PSA decline of ≧50% from baseline” value is 29% with metastatic CRPC (PA cohort, 240 mg oral, continuous daily dosing) and 88% with metastatic CRPC (TN cohort, 240 mg oral, continuous daily dosing). The “Median time to PSA progression” value is 16 weeks in the data set with metastatic CRPC (PA cohort, 240 mg/day); “not reached” in the data set with metastatic CRPC (TN cohort, preliminary 12-week period, 240 mg/day); “not reached” with non-metastatic CRPC (observed time period). For the same molecule, the “Objective response rate (by RECIST)” value in the data set on metastatic CRPC (TN patients with measurable disease at baseline, 240 mg/day) was determined as 63%. In data set [1], the Tumor response result was “partial or complete tumor regression”. For the same molecule, the “Patients with ≧50% decline in PSA as compared to baseline” value in the data set with non-metastatic CRPC (12 weeks of treatment) is listed as 91%. Moreover, in the data set on non-metastatic CRPC (24 weeks), the “Patients with ≧50% decline in PSA” value was 91%. Also, in the data set with non-metastatic CRPC (24 weeks), the “Patients with ≧90% decline in PSA” value was found to be 55%. In the data set on LNCaP/AR cells (1 mg/kg/day), the “Mean tumor response of LNCaP/AR tumors” value was “tumor stasis”. Moreover, the “Tumor response of LNCaP/AR tumors” value in the data set on LNCaP/AR cells (10-30 mg/kg/day) is given as “nearly full regression of all treated LNCaP/AR tumors”. In addition, the “Number of regressions > 50%” value was 2/10 in the data set on LNCaP/AR cells (Table 4, 3 mg/kg/day alone, oral gavage daily) and 1/10 in the data set with LNCaP/AR cells (Table 5, 3 mg/kg/day alone, oral gavage daily). Also, the Efficacy result in data set [2] was “minimal efficacy”. The “Number of Tumor Regressions” value with MDA MB 453 cells (+DHT) was 9/9; in the data set on MDA MB 453 cells (−DHT), 5/10.
On to `COc1ccc(Cl)c(Nc2nc3ccccc3nc2NS(=O)(=O)c2cccc(NC(=O)C(C)(C)N)c2)c1` [SAR245408], for which the “Efficacy on LNCaP/AR tumors” value in the data set with LNCaP/AR cells is reported as “a range of efficacy from tumor growth inhibition to tumor stasis”.
In the case of `Cn1c(=O)n(-c2ccc(C(C)(C)C#N)cc2)c2c3cc(-c4cnc5ccccc5c4)ccc3ncc21` [BEZ-235], the Anti-tumor activity entry in data set [2] (monotherapy) is reported as “minimal anti-tumor activity”.
For the molecule `CC(C)(O)C(=O)Nc1ccc([N+](=O)[O-])c(C(F)(F)F)c1` [hydroxyflutamide], at T877A AR mutant, the Agonist activity result is reported as “act as AR agonists”.
Regarding `CNC(=O)c1ccc(N2C(=S)N(c3ccc(C#N)c(C(F)(F)F)c3)C(=O)C2(C)C)cc1F` [MDV3100, 4-(3-(4-cyano-3-(trifluoromethyl)phenyl)-5,5-dimethyl-4-oxo-2-thioxoimidazolidin-1-yl)-2-fluoro-N-methylbenzamide], the Efficacy entry in data set [2] is “minimal efficacy”.
